# What was measured:
# Format in all cases: functional
# Mus musculus [1] = experiment: Anticonvulsant activity in Mus musculus albino (mouse) assessed as time of onset of PTZ-induced clonic convulsion at 25 mg/kg, po administered 30 min prior to PTZ-challenge (reference value: 61 secs)
# Mus musculus [2] = experiment: Anticonvulsant activity in Mus musculus albino (mouse) assessed as protection against PTZ-induced clonic convulsion at 25 mg/kg, po administered 30 min prior to PTZ-challenge relative to control
# Rattus norvegicus [3] = experiment: Anti-inflammatory activity in Rattus norvegicus Wistar (rat) assessed as inhibition of carrageenan-induced paw edema at 20 mg/kg, ip administered 30 min post carrageenan-challenge measured after 3 hr relative to control; settings: route intraperitoneal
# Rattus norvegicus [4] = experiment: Anti-inflammatory activity in Rattus norvegicus Wistar (rat) assessed as inhibition of carrageenan-induced paw edema at 10 mg/kg, ip administered 30 min post carrageenan-challenge measured after 3 hr relative to control; settings: route intraperitoneal
SMILES,Time (Mus musculus [1]) [s],Activity (Mus musculus [2]) [%],inhibition in vivo at 20 mg/kg (Rattus norvegicus [3]) [%],inhibition in vivo at 10 mg/kg (Rattus norvegicus [4]) [%]
O=[N+]([O-])c1cccc(/C=N/C2Oc3ccccc3CC2c2noc(-c3cccc([N+](=O)[O-])c3)n2)c1 (stereo not given),60,100,40.9,
Fc1ccc(Br)cc1/C=N/C1Oc2ccccc2CC1c1noc(-c2cc(Br)ccc2F)n1 (stereo not given),128,66.6,,
COc1cc(/C=N/C2Oc3ccccc3CC2c2noc(-c3ccc(O)c(OC)c3)n2)ccc1O (stereo not given),80,66.6,42.5,
Brc1ccc(/C=N/C2Oc3ccccc3CC2c2noc(-c3ccc(Br)cc3)n2)cc1 (stereo not given),104,100,,
C(=N\C1Oc2ccccc2CC1c1noc(-c2nccs2)n1)/c1nccs1 (stereo not given),201,100,17.3,
Fc1ccc(/C=N/C2Oc3ccccc3CC2c2noc(-c3ccc(F)c(Oc4ccccc4)c3)n2)cc1Oc1ccccc1 (stereo not given),,,37,
Clc1ccccc1/C=N/C1Oc2ccccc2CC1c1noc(-c2ccccc2Cl)n1 (stereo not given),226,100,37,
Clc1ccc(/C=N/C2Oc3ccccc3CC2c2noc(-c3ccc(Cl)cc3)n2)cc1 (stereo not given),218,100,26.8,
Oc1ccccc1/C=N/C1Oc2ccccc2CC1c1noc(-c2ccccc2O)n1 (stereo not given),325,100,27.5,
COc1ccc(/C=N/C2Oc3ccccc3CC2c2noc(-c3ccc(OC)c(OC)c3)n2)cc1OC (stereo not given),158,100,31.5,
Fc1ccc(/C=N/C2Oc3ccccc3CC2c2noc(-c3ccc(F)cc3)n2)cc1 (stereo not given),101,100,,
C(/C=C/c1ccccc1)=N/C1Oc2ccccc2CC1c1noc(/C=C/c2ccccc2)n1 (stereo not given),,,23.6,
O=C(O)Cc1ccccc1Nc1c(Cl)cccc1Cl [DICLOFENAC],,,,80.4

# Source: ChEMBL document CHEMBL3045145, “Synthesis, characterization and their anticonvulsant, anti-inflammatory studies of some novel chromeno oxadiazoles” (2013)
